In PubChem BioAssay AID210 (DTP/NCI, 2004) one finds T/C data, which are given here for 8 compounds.

“And” between values parts separate entries of the source, which are not always exact repeats. Equal values may be shown once. Toxic doses and inconclusive results are not listed.

In the experiment the test system is CD2F1 mice, ip Colon 26 adenocarcinoma, median survival T/C. The experiment in a line: NCI In Vivo Anticancer Drug Screen. Data for tumor model Colon 26 Adenocarcinoma (intraperitoneal) in CD2F1 (CDF1) mice. The note with it: endpoint: median survival time, higher = longer survival. Here is the method:
The antitumor activity of compounds was measured in mice bearing transplantable tumors. Survival or tumor size were measured and the results are expressed as the measurement made in the treated group (T) divided by the measurement made in the vehicle treated control group (C). The tumor model used in this assay is Colon 26 Adenocarcinoma (intraperitoneal) in CD2F1 (CDF1) mice

With `CO[C@@]12[C@H](COC(N)=O)C3=C(C(=O)C(C)=C(N)C3=O)N1C[C@@H]1N[C@@H]12`, the T/C runs as follows: (dose: 1.0 mg/kg/injection, schedule: Q01DX004 (ip), vehicle: saline) 122 % of control; (dose: 1.0 mg/kg/injection, schedule: Q03DX002 (ip), vehicle: saline) 120 % of control; (dose: 2.0 mg/kg/injection, schedule: Q01DX005 (ip), vehicle: saline) 96 % of control; (dose: 2.0 mg/kg/injection, schedule: Q03DX002 (ip), vehicle: saline) 113 % of control; (dose: 2.0 mg/kg/injection, schedule: Q07DX003 (ip), vehicle: Klucel (hydroxypropylcellulose) (HPC)) 195 % of control; (dose: 2.0 mg/kg/injection, schedule: Q07DX003 (ip), vehicle: saline) 152 % of control. In addition, the T/C is 183 % of control (dose: 2.9 mg/kg/injection, schedule: Q07DX003 (ip), vehicle: Klucel (hydroxypropylcellulose) (HPC)); 169 % of control (dose: 2.9 mg/kg/injection, schedule: Q07DX003 (ip), vehicle: saline); 114 % of control (dose: 3.0 mg/kg/injection, schedule: Q01DX004 (ip), vehicle: saline); 110 % of control (dose: 3.0 mg/kg/injection, schedule: Q01DX005 (ip), vehicle: saline); 117 % of control (dose: 3.0 mg/kg/injection, schedule: Q03DX002 (ip), vehicle: saline); 223 % of control (dose: 4.2 mg/kg/injection, schedule: Q07DX003 (ip), vehicle: Klucel (hydroxypropylcellulose) (HPC)). The T/C by setting is: (dose: 4.2 mg/kg/injection, schedule: Q07DX003 (ip), vehicle: saline) 190 % of control; (dose: 4.5 mg/kg/injection, schedule: Q01DX005 (ip), vehicle: saline) 114 % of control; (dose: 4.5 mg/kg/injection, schedule: Q03DX002 (ip), vehicle: saline) 110 % of control; (dose: 6.0 mg/kg/injection, schedule: Q01DX005 (ip), vehicle: saline) 121 % of control; (dose: 6.0 mg/kg/injection, schedule: Q07DX003 (ip), vehicle: Klucel (hydroxypropylcellulose) (HPC)) 87 % of control; (dose: 6.0 mg/kg/injection, schedule: Q07DX003 (ip), vehicle: saline) 231 % of control.
With `COc1cccc2c1C(=O)c1c(O)c3c(c(O)c1C2=O)C[C@@](O)(C(=O)CO)C[C@@H]3OC1CC(OC(C)=O)C(OC(C)=O)C(C)O1` (stereo partly drawn), the T/C reads like this: (dose: 58.0 mg/kg/injection, schedule: Q07DX002 (sc), vehicle: distilled water + Tween-80) 109 % of control; (dose: 101.0 mg/kg/injection, schedule: Q07DX002 (sc), vehicle: distilled water + Tween-80) 120 % of control; (dose: 300.0 mg/kg/injection, schedule: Q07DX002 (sc), vehicle: distilled water + Tween-80) 150 % of control.
As for `COC(=O)Nc1cccc(-c2nc3ccc(NC(=O)OC)cc3c(=O)n2-c2ccccc2)c1`, the T/C (dose: 64.0 mg/kg/injection, schedule: Q04DX003 (ip), vehicle: Klucel (hydroxypropylcellulose) (HPC)) was 171 % of control.
As for `CCC[CH2][Hg][Cl]`, the T/C is 98 % of control (dose: 3.12 mg/kg/injection, schedule: Q04DX003 (ip), vehicle: Klucel (hydroxypropylcellulose) (HPC)) and 93 % of control (dose: 6.25 mg/kg/injection, schedule: Q04DX003 (ip), vehicle: Klucel (hydroxypropylcellulose) (HPC)).
With `N=[N+]=CC(=O)OCC(N)C(=O)O` (stereo not drawn), the T/C is 113 % of control (dose: 3.12 mg/kg/injection, schedule: Q04DX003 (ip), vehicle: water); 113 % of control (dose: 6.25 mg/kg/injection, schedule: Q04DX003 (ip), vehicle: water); 105 % of control (dose: 12.5 mg/kg/injection, schedule: Q04DX003 (ip), vehicle: water); 111 % of control (dose: 25.0 mg/kg/injection, schedule: Q04DX003 (ip), vehicle: water); 95 % of control (dose: 50.0 mg/kg/injection, schedule: Q04DX003 (ip), vehicle: water).
Turning to `CC(=O)Nc1ccc(O)c(O)c1`, the T/C runs as follows: (dose: 12.5 mg/kg/injection, schedule: Q04DX003 (ip), vehicle: saline with Tween-80) 94 % of control; (dose: 25.0 mg/kg/injection, schedule: Q04DX003 (ip), vehicle: saline with Tween-80) 106 % of control; (dose: 50.0 mg/kg/injection, schedule: Q04DX003 (ip), vehicle: saline with Tween-80) 96 % of control; (dose: 100.0 mg/kg/injection, schedule: Q04DX003 (ip), vehicle: saline with Tween-80) 120 % of control; (dose: 200.0 mg/kg/injection, schedule: Q04DX003 (ip), vehicle: saline with Tween-80) 100 % of control; (dose: 400.0 mg/kg/injection, schedule: Q04DX003 (ip), vehicle: saline with Tween-80) 108 % of control.
Consider `Cc1c[nH]c(=O)[nH]c1=O`, for which the T/C (dose: 16.0 mg/kg/injection, schedule: Q04DX002 (ip), vehicle: Klucel (hydroxypropylcellulose) (HPC)) was 97 % of control; the T/C (dose: 32.0 mg/kg/injection, schedule: Q04DX002 (ip), vehicle: Klucel (hydroxypropylcellulose) (HPC)) is 101 % of control; the T/C (dose: 64.0 mg/kg/injection, schedule: Q04DX002 (ip), vehicle: Klucel (hydroxypropylcellulose) (HPC)) was 101 % of control and 94 % of control and 96 % of control; the T/C (dose: 128.0 mg/kg/injection, schedule: Q04DX002 (ip), vehicle: Klucel (hydroxypropylcellulose) (HPC)) was 101 % of control and 88 % of control and 95 % of control; the T/C (dose: 256.0 mg/kg/injection, schedule: Q04DX002 (ip), vehicle: Klucel (hydroxypropylcellulose) (HPC)) was 110 % of control and 92 % of control and 97 % of control; the T/C (dose: 512.0 mg/kg/injection, schedule: Q04DX002 (ip), vehicle: Klucel (hydroxypropylcellulose) (HPC)) is 91 % of control. Further, where the note is “dose: 1024.0 mg/kg/injection, schedule: Q04DX002 (ip), vehicle: Klucel (hydroxypropylcellulose) (HPC)”, the T/C is 86 % of control.
For the compound `COc1cccc2c1C(=O)c1c(O)c3c(c(O)c1C2=O)C[C@@](O)(C(C)=O)C[C@@H]3OC1CC(N(Cc2ccccc2)Cc2ccccc2)C(O)C(C)O1` (stereo partly drawn), the T/C (dose: 3.0 mg/kg/injection, schedule: Q04DX002 (ip), vehicle: saline with Tween-80) is 104 % of control.
